The nature of data set [1]: Half life in Sprague-Dawley rat at 1 mg/kg,iv administration by LC-MS/MS analysis. Format: ADME, organism-based. The conditions noted are these: in vivo.
Data set [2] can be described thus: Oral bioavailability in Sprague-Dawley rat at 5 mg/kg administration by LC-MS/MS analysis. Format: ADME, organism-based. The conditions noted are these: in vivo.

As a reminder, the half-life is the time in which the quantity being followed falls by half. For orientation: bioavailability means dose-corrected exposure relative to a reference, in per cent. A high value points to much systemic uptake.

In the case of `CNC(=O)c1[nH]c(C(=O)NC2COC2)cc1OC(C)c1ccc(Cl)cc1` (stereo not drawn), in data set [1], the half-life is 36 min. This compound also yielded a bioavailability in data set [2] of 15%. In the case of `CNC(=O)c1[nH]c(C(=O)N[C@H]2CC[C@H](O)CC2)cc1OC(C)c1ccc(Cl)cc1F` (stereo partly drawn), the half-life in data set [1] was 84 min. For the same compound, the bioavailability in data set [2] is 66%. In data set [1], `CNC(=O)c1[nH]c(C(=O)NC2CCC2)cc1OC(C)c1ccccc1` (stereo not drawn) showed a half-life of 54 min. In addition, the bioavailability in data set [2] was 66%. In data set [2], `CNC(=O)c1[nH]c(C(=O)NC2CC2)cc1O[C@@H](C)c1ccccc1F` came in with a bioavailability of 70%.

For `CCNC(=O)c1cc(OC(C)c2ccc(Cl)cc2)c(C(=O)NC)[nH]1` (stereo not drawn), in data set [1], the half-life is 66 min. The compound also registered a bioavailability in data set [2] of 30%. The compound `CNC(=O)c1[nH]c(C(=O)NC2CCC2)cc1OC(C)c1ccc(Cl)cc1` (stereo not drawn) gave a half-life in data set [1] of 24 min. For the same compound, the bioavailability in data set [2] was determined as 47%. The compound `CNC(=O)c1[nH]c(C(=O)NC2CCC2)cc1OC(C)c1ccc(Cl)cc1F` (single isomer, unassigned) registered a bioavailability in data set [2] of 65%.

Compound `CCNC(=O)c1cc(OC(C)c2ccccc2F)c(C(=O)NC)[nH]1` (stereo not drawn) had a half-life in data set [1] of 24 min. In addition, in data set [2], the bioavailability is 46%. `CCNC(=O)c1cc(OC(C)c2ccc(Cl)cc2F)c(C(=O)NC)[nH]1` (stereo not drawn): the half-life in data set [1] is 18 min. Also, the bioavailability in data set [2] was determined as 69%.

With `CNC(=O)c1[nH]c(C(=O)NC2CCC2)cc1OC(C)c1ccccc1F` (stereo not drawn), in data set [1], the half-life is 30 min. The compound also came in with a bioavailability in data set [2] of 58%.

(Values after ChEMBL document CHEMBL5344458, “AI in Pharma: Transforming Drug Discovery and Strategic Management with MYC-Modulating Compounds and BET Protein Inhibitors” (ACS Med Chem Lett, 2024).)
